The test system of assay [1] is secretory coil cells of human eccrine glands. Description: Inhibition of methylcholine-induced calcium influx into human eccrine secretory coil cells (Fura-2). In kind it is cell-based. On the procedure: The procedure is performed on an isolated human sweat gland. Collapsed segments of secretory coil are held between two glass pipettes in the perfusion bath of an inverted microscope and bathed at 37° C. in a solution buffered to pH 7.4. Intracellular calcium may be measured by any convenient means; in our tests the fluorescent dye FURA-2 AM was used (full details are given in Examples 1 and 2). The calcium influx induced by the administration of methylcholine at 1 μmol.dm^−3 is compared before and after the introduction of the test material into the buffer solution. Test materials are classed as CCBAs if they are able to reduce the methylcholine-induced calcium influx into the cells, preferably by at least 20%, more preferably by at least 50%. The concentration of test material used should be between 1 and 100 μmol.dm^−3 for pure compounds, 25 μmol.dm^−3 being a typical concentration of use. When the test material used is not a pure compound, for example when it is a plant extract, allowance must be made for the non-active components in the extract when choosing the test dosage.
(§1) Collapsed segments of secretory coil were held between two glass pipettes in the perfusion bath of an inverted Olympus IMT-2 microscope and bathed in a solution at 37° C. containing (in mmol.dm^−3): sodium chloride, 130; HEPES (buffer; 4-[2-hydroxyethyl]-1-piperazineethanesulphonic acid), 20; potassium chloride, 5; calcium chloride, 1; magnesium chloride, 1; and glucose, 10. The pH of the solution was adjusted to 7.4 using 1 mol.dm^−3 sodium hydroxide solution.
The calcium influx was induced by the administration of methylcholine (a cholinergic agonist) at 1 μmol.dm^−3. This was first done for control solutions containing no CCBA and then for test solutions containing tetrandrine (various dosages).
Intracellular calcium concentration was measured using the fluorescent probe Fura-2, a dye that has high affinity for calcium. When illuminated with ultraviolet light at 350 and 380 nm, Fura-2 emits corresponding fluorescent signals. Importantly, when calcium binds to the dye, the magnitude of the emitted fluoresence signal alters. It is these changes that are used to calculate the intracellular calcium concentration (vide infra).
Segments of secretory coil were incubated for 40 minutes, at 37° C., with 5 μm.dm^−3 Fura-2 AM. This form of Fura-2 is lipid soluble and readily enters the cell where the AM group is cleaved off by esterases, leaving the fluorescent lipid-insoluble dye trapped within the cells. Excitation light at 350 and 380 nm was supplied from a computer controlled Photon Technology International (PTI) spectrofluorimeter. This light was passed through a 390 nm dichroic mirror, prior to passage through the microscope objective (×40) and onto the tissue sample. The fluorescence resulting from the tissue was passed through a 505 nm bandpass filter, before being detected by a photomultiplier tube. The output from the photomultiplier tube was digitised and analysed using Photon Technology International software. Background fluorescence (measured prior to introduction of the Fura-2 AM) was subtracted from the total signal for each wavelength and a value representing the intracellular calcium concentration was obtained by dividing the fluorescence value resulting from the 350 nm excitation light by that resulting from the 380 nm excitation light.

The subject of assay [2] is secretory coil cells of human apocrine glands. Kind of assay: Inhibition of methylcholine-induced calcium influx into human apocrine secretory coil cells (Fura-2). Type of assay: cell-based. The protocol: as §1
Intracellular calcium concentration was measured using the fluorescent probe Fura-2, a dye that has high affinity for calcium. When illuminated with ultraviolet light at 350 and 380 nm, Fura-2 emits corresponding fluorescent signals. Importantly, when calcium binds to the dye, the magnitude of the emitted fluoresence signal alters. […]
Segments of secretory coil were incubated for 40 minutes, at 37° C., with 5 μm.dm^−3 Fura-2 AM. This form of Fura-2 is lipid soluble and readily enters the cell where the AM group is cleaved off by esterases, leaving the fluorescent lipid-insoluble dye trapped within the cells. […] The fluorescence resulting from the tissue was passed through a 505 nm bandpass filter, before being detected by a photomultiplier tube. The output from the photomultiplier tube was digitised and analysed using Photon Technology International software. […]

Assay [3] has as its system isolated human eccrine glands. Description: In vitro sweat reduction study on isolated human eccrine glands. Type of assay: cell-based. An excerpt: This example illustrates the ability of CCBAs to reduce sweat secretion from isolated human eccrine glands.
The method employed was analogous to that described by Sato and Sato in Am. J. Physiol., 1973, 225, 1147-1151.

In assay [4] the test system is Staphylococcus epidermidis. The conditions noted are these: cited from earlier work.
Assay [5] deals with isolated cannulated monkey palm eccrine sweat glands. The conditions noted are these: in vitro; cited from earlier work.

The source of these data is patent publication US6632422B2, “Antiperspirant and deodorant products and methods for their use” (priority 2000, dated 2003).

Structures can show the parent of a compound that is named as a salt. Where two headings read alike, the source gives them in different places.

By MIC is commonly meant the least concentration at which growth counts as inhibited.

As to `COc1ccc2cc1Oc1ccc(cc1)C[C@H]1c3cc(c(OC)cc3CCN1C)Oc1c(OC)c(OC)cc3c1[C@H](C2)N(C)CC3` [Tetrandrine, tetrandrine], the Ca influx inhibition in assay [1] (dosage 1 μmol.dm^−3, methylcholine 1 μmol.dm^−3) is listed as 24%; in assay [1] (dosage 10 μmol.dm^−3, methylcholine 1 μmol.dm^−3), 44%; in assay [1] (dosage 25 μmol.dm^−3, methylcholine 1 μmol.dm^−3) it was 75%; in assay [1] (dosage 50 μmol.dm^−3, methylcholine 1 μmol.dm^−3), 96%; in assay [1] (dosage 100 μmol.dm^−3, methylcholine 1 μmol.dm^−3), 100%; in assay [2] (dosage 10 μmol.dm^−3, methylcholine 50 μmol.dm^−3) it was 60%. Moreover, the Ca influx inhibition in assay [2] (dosage 50 μmol.dm^−3, methylcholine 50 μmol.dm^−3) is recorded as 93%. Further, the “% reduction in sweat secretion” value in assay [3] (dosage 50 μmol.dm^−3) stood at 93%.
With `COc1ccc(CCN(C)CCCC(C#N)(c2ccc(OC)c(OC)c2)C(C)C)cc1OC` (stereo not shown) [Verapamil hydrochloride], in assay [3] (dosage 1000 μmol.dm^−3), the “% reduction in sweat secretion” value was 93%.
Regarding `CCO` [ethanol], the MIC result in assay [4] (stated by contrast, no source given) was “greater than 1 mg.ml^−1”.
Take `CC(C)=CCCC(C)=CCCC(C)=CCO` [farnesol, 3,7,11-trimethyldodeca-2,6,10-trienol]: in assay [4] (literature values), the MIC entry is “ca. 25 μg.ml^−1”.
As to `Oc1cc(Cl)ccc1Oc1ccc(Cl)cc1Cl` [triclosan, 2′,4,4′-trichloro, 2-hydroxy-diphenyl ether], the MIC in assay [4] (literature values) is 0.01 to 10 µg/mL.
As for methoxy-verapamil, in assay [5], the “effect on sweat production” value is on record as “reduce sweat production”.
